Data set [1] deals with patients with MCI or mild dementia due to AD. Put plainly: Vital signs, physical examination, ECG and EEG. In kind it is in vivo, human. To be noted: 300 mg q.d. oral 28 d.
Protocol: For safety assessment during baseline, at Day 14, 28, and 56, laboratory parameters and vital signs were measured, a physical exam was performed, and ECGs were recorded per protocol. A safety MRI was performed at screening, a second one within 3 days after day 28 and a third one at Day 56. During baseline and at day 28, EEG measurements were performed. In addition, nature, frequency, severity, and timing of AEs and SAEs were recorded at day 14, 28, and 56. Standardized AE reports were provided and analysed by the Data Safety and Monitoring Board (DSMB).
Data set [2] shares this test system. Put plainly: Mini-Mental State Examination (MMSE). To be noted: 300 mg q.d. oral 28 d. Format: in vivo, human. The text has this:
Twenty male and female (not of childbearing potential) patients between 50 and 80 years of age, with a Mini mental state examination (MMSE) score of 22 to 30, CSF biomarkers indicating AD pathology (p-tau >62 pg/ml, total CSF Aβ 1-42/1-40 ratio ≤0.055), a MRI scan in accordance with AD diagnosis not older than 3 months, at least 3 months stable medication prior to screening, were enrolled. Nineteen patients were randomized and data analyzed, one patient dropped out by withdrawal of the informed consent before treatment was initiated. Patients underwent an extensive clinical workup and received a MRI brain scan as well as a lumbar puncture. […] Patients who met any of the following criteria were not eligible for enrollment: History of seizures, stroke or transient ischemic attack, unstable medical, neurological, or psychiatric condition. Current treatment with typical antipsychotic or neuroleptic medication or within 6 months prior to screening. Anticoagulants within 3 months prior to screening, chronic use of opiates or opioids (including long-acting opioid medication) within 3 months prior to screening, stimulant medications (amphetamine, methylphenidate preparations, or modafinil) within 1 month prior to screening and throughout the study, chronic use of benzodiazepines, barbiturates, or hypnotics. […]

Square brackets hold non-standard residues; d marks the D form. Peptide text beside a SMILES is read from it.

Regarding `CC(C)C[C@@H](NC(=O)[C@H](NC(=O)[C@H]1CCCN1)[C@H](C)O)C(=O)N[C@H](Cc1c[nH]cn1)C(=O)N[C@@H](C(=O)N[C@H](Cc1c[nH]cn1)C(=O)N[C@H](CC(N)=O)C(=O)N[C@H](CCCNC(=N)N)C(=O)N[C@H](CCCNC(=N)N)C(=O)N[C@H](CCCNC(=N)N)C(=O)N[C@H](CCCNC(=N)N)C(=O)N[C@H](CCCNC(=N)N)C(N)=O)[C@H](C)O` [PRI-002] (H-[dP][dT][dL][dH][dT][dH][dN][dR][dR][dR][dR][dR]-NH2; N-terminus and C-terminus assumed), the “changes on vital signs, general physical examination, ECG and EEG” value in data set [1] is “no significant changes”. Moreover, the “MMSE, Mean” value in data set [2] (Day 28, n=8) is 27.9; in data set [2] (Day 56, n=9), 27.2.
